Measurements taken from EP0678516B1, “Preparation of 2-bromo-5-(2-bromo-2-nitrovinyl)-furan and its use as microcide” (CENTRO DE BIOACTIVOS QUIMICOS DE LA UNIVERSIDAD CENTRAL DE …, priority 1994, dated 1995).
≈ marks a conversion by molar mass, not a printed value.

Assays:
Candida guilliermondi = assay: In vitro MIC (serial dilution); type: cell-based
Procedure: (§1) The antimicrobial sensitivity was first evaluated "in vitro" using the serial dilution method for bacteria and fungi. Other growth methods in agar cultures were included for other species. The liquid and solid mediums used were Mueller-Hinton, Tryptona Soya, Sabouraud Dextrosa, Sabouraud Maltose and other mediums in accordance with the cultural demands of the micro-organisms valued.
(§2) The temperature and incubation period was adjusted to conditions and characteristics of the micro-organisms used.
(§3) The Minimal Inhibitory Concentration (MIC) was calculated in terms of MIC50 and MIC90 in µg/ml.

Candida krusei = assay: In vitro MIC (serial dilution); type: cell-based; conditions: Pichia kudriavzevii
Procedure: as §1, §2, §3

Candida zeyfanoide = assay: In vitro MIC (serial dilution); type: cell-based
Procedure: as §1, §2, §3

Enterobacter spp. = assay: In vitro MIC (serial dilution); type: cell-based
Procedure: as §1, §2, §3

Epidermophyton floccasum = assay: In vitro MIC (serial dilution); type: cell-based; conditions: only one value given
Procedure: as §1, §2, §3

Fusarium sp. = assay: In vitro MIC (serial dilution); type: cell-based; conditions: read-out: Minimal Inhibitory Concentration (MIC)
Procedure: as §1, §2, §3

Haemophilus influenzae = assay: In vitro MIC (serial dilution); type: cell-based
Procedure: as §1, §2, §3

Microsporum canis = assay: In vitro MIC (serial dilution); type: cell-based
Procedure: as §1, §2, §3

Neisseria meningitidis = assay: In vitro MIC (serial dilution); type: cell-based
Procedure: as §1, §2, §3

Pasteurella haemolytica = assay: In vitro MIC (serial dilution); type: cell-based; conditions: Mannheimia haemolytica
Procedure: as §1, §2, §3

Proteus vulgaris = assay: In vitro MIC (serial dilution); type: cell-based
Procedure: as §1, §2, §3

Salmonella enteritidis = assay: In vitro MIC (serial dilution); type: cell-based; conditions: Salmonella enterica
Procedure: as §1, §2, §3

Salmonella thyphi = assay: In vitro MIC (serial dilution); type: cell-based
Procedure: as §1, §2, §3

Staphylococcus albus = assay: In vitro MIC (serial dilution); type: cell-based
Procedure: as §1, §2, §3

Staphylococcus aureus = assay: In vitro MIC (serial dilution); type: cell-based
Procedure: as §1, §2, §3

Streptococcus agalactiae = assay: In vitro MIC (serial dilution); type: cell-based
Procedure: as §1, §2, §3

[1] = tested on: Mycoplasma bovigenitalium; assay: In vitro MIC; type: cell-based; conditions: Mycoplasmopsis bovigenitalium, single value, MIC50 or MIC90 not stated, read-out: Minimal Inhibitory Concentration (MIC)
Procedure: as §1, §2, §3

Percutaneous LD50 [2] = type: in vivo, mice OF1; conditions: interscapular region, 0.2 ml/10 g of body mass
Description: (§4) Moreover, the anatomopathological elements and the clinical events were characterized during the experiments.

Percutaneous LD50 [3] = type: in vivo, Sprague Dawley rats; conditions: interscapular region, 0.2 ml/10 g of body mass
Description: as §4

Pseudomonas aeruginosa [4] = assay: Infected burn wound treated with ointments; type: in vivo, guinea-pigs; conditions: concentration of ointment applied on 2 cm^2 infected burns
Procedure: The "in vivo" effectiveness of four ointments of 2-bromo-5-(2-bromo-2-nitro-vinyl)-furan was evaluated at 1, 0.5, 0.25 and 0.125% in hydrophislous ointment applying it on 2 cm^2 of burns provoked to guinea-pigs and subsequently infected with Pseudomonas aeruginosa by a burn wound in an area of 2 cm^2, using positive and negative control groups.

Pseudomonas aeruginosa [5] = assay: Experimental eye infection, erosion and instillation method; type: in vivo, New Zealand Rabbits; conditions: post inoculation evaluation
Procedure: The effectiveness of two oil formulations was checked of 0.05% for the experimental treatment of eye infections by Pseudomonas aeruginosa in New Zealand Rabbits through the erosion and instillation method. The effectiveness of treatments was tested clinically and microbiologically, observing significant differences with the control group (not treated) (Table No. 2 and 2.1.).

queratoconjunctivitis = assay: Effectiveness against bacterial eye diseases, all treated eyes; type: in vivo; conditions: 9435 animal eyes, overall
Description: The effectiveness of the active principle against bacterial eye diseases in: 9435 animal eyes affected with queratoconjunctivitis; 8093 of cattle and 1342 of other species (sheep, rabbits, dogs, horses, pigs, cats, guinea-pigs and birds).

Pseudomonas aeruginosa [6] = assay: Intramuscular treatment of stud bulls affected with piocianosis; type: in vivo
Procedure: The active principle was administered in a dose of 5-10 mg/kg of body mass by intramuscular route in bulls affected with piocianosis Pseudomonas aeruginosa. […] In clinical tests no allergic reactions were detected in animals (Table No.5).

[7] = tested on: Streptococcus agalactiae and Staphylococcus aureus; assay: Intracisternal treatment of clinical mastitis; type: in vivo, femal oxes
Description: The active principle in a concentration of 0.1 % is applied by intracisternal route daily for three consecutive days in femal oxes clinically affected by mastitis of morbid catarrh purulen course types, in which the isolated micro-organisms were Streptococcus agalactiae and Staphylococcus aureus. As a control medicament the mammary infusion of neomicine was used.

[8] = tested on: septic puerperal metritis; assay: Treatment of septic puerperal metritis; type: in vivo, female oxes; conditions: G-1 1.5% oil solution intrauterine, Tetracycline abdominal aorta route
Procedure: The treatment consisted in applying 40 ml for three consecutive days at intervals of 24 hours from the diagnosis of the disease process. Treatment was compared with intrasoric tetracyclin.

[9] = group I, ointment at 0.05% for 8 days
[10] = group II, ointment at 0.05% for 4 days
[11] = group III, eye drops at 0.05% for 4 days
[12] = 5-10 mg/kg of body mass, intramuscular route
[13] = 25 ill bulls, 5 treatments per animal, 5-10 mg/kg intramuscular

## O=[N+]([O-])C(Br)=Cc1ccc(Br)o1 [Product G-1, 2-bromo-5-(2-bromo-2-nitro-vinyl)-furan]
Candida guilliermondi
  MIC50: 1.92 µg/mL (≈ 6.47 µM)
  MIC90: 2.84 µg/mL (≈ 9.57 µM)
Candida krusei
  MIC50: 1.92 µg/mL (≈ 6.47 µM)
  MIC90: 2.84 µg/mL (≈ 9.57 µM)
Candida zeyfanoide
  MIC50: 1.92 µg/mL (≈ 6.47 µM)
  MIC90: 3.56 µg/mL (≈ 12 µM)
Enterobacter spp.
  MIC50: 5.3 µg/mL (≈ 17.9 µM)
  MIC90: 17.2 µg/mL (≈ 57.8 µM)
Epidermophyton floccasum
  MIC50: 12.5 µg/mL (≈ 42.1 µM)
Fusarium sp.
  MIC: 50 µg/mL (≈ 168 µM)
Haemophilus influenzae
  MIC50: 3.51 µg/mL (≈ 11.8 µM)
  MIC90: 39.2 µg/mL (≈ 132 µM)
Microsporum canis
  MIC50: 7.91 µg/mL (≈ 26.6 µM)
  MIC90: 40.6 µg/mL (≈ 137 µM)
Neisseria meningitidis
  MIC50: 1.84 µg/mL (≈ 6.2 µM)
  MIC90: 3.47 µg/mL (≈ 11.7 µM)
Pasteurella haemolytica
  MIC50: 3.72 µg/mL (≈ 12.5 µM)
  MIC90: 5.63 µg/mL (≈ 19 µM)
Proteus vulgaris
  MIC50: 5.95 µg/mL (≈ 20 µM)
  MIC90: 19.8 µg/mL (≈ 66.5 µM)
Salmonella enteritidis
  MIC50: 6.86 µg/mL (≈ 23.1 µM)
  MIC90: 11.5 µg/mL (≈ 38.7 µM)
Salmonella thyphi
  MIC50: 2.5 µg/mL (≈ 8.42 µM)
  MIC90: 10 µg/mL (≈ 33.7 µM)
Staphylococcus albus
  MIC50: 10.2 µg/mL (≈ 34.5 µM)
  MIC90: 19.8 µg/mL (≈ 66.8 µM)
Staphylococcus aureus
  MIC50: 5.91 µg/mL (≈ 19.9 µM)
  MIC90: 12.9 µg/mL (≈ 43.6 µM)
Streptococcus agalactiae
  MIC50: 1.99 µg/mL (≈ 6.7 µM)
  MIC90: 4.55 µg/mL (≈ 15.3 µM)
[1]
  MIC: 50 µg/mL (≈ 168 µM)
Percutaneous LD50 [2]; mice OF1 females
  LD50: 9.8%
Percutaneous LD50 [2]; mice OF1 males
  LD50: 12.1%
Percutaneous LD50 [3]; female Sprague Dawley rats
  LD50: 14.7%
Percutaneous LD50 [3]; male Sprague Dawley rats
  LD50: 15.8%
Pseudomonas aeruginosa [4]
  effective dose 50 (ED50): 0.125%
Pseudomonas aeruginosa [5]; [9]
  Bacteriolo-gical Exam: 6 (+)
  Edam: 6/6
  Hyperemia: 6/6
  Secretions: 6/6
  Ulcer: 6/6
Pseudomonas aeruginosa [5]; [10]
  Bacteriolo-gical Exam: 6 (+)
  Edam: 6/6
  Hyperemia: 6/6
  Secretions: 6/6
  Ulcer: 6/6
Pseudomonas aeruginosa [5]; [11]
  Bacteriolo-gical Exam: 6 (+)
  Edam: 6/6
  Hyperemia: 6/6
  Secretions: 6/6
  Ulcer: 6/6
queratoconjunctivitis
  clinical recuperation: 89,6%
Pseudomonas aeruginosa [6]; [12]
  allergic reactions to the medicament: without any allergic reactions to the medicament being detected
  seminal parameters established as quality control: no alterations being detected
Pseudomonas aeruginosa [6]; [13]
  Recuperated (animals): 21
  percentage of effectiveness: 84%
Pseudomonas aeruginosa [6]; at 3,7,14,21 and 28 days
  bacteriological tests carried out in the semen: negative at germ
Pseudomonas aeruginosa [6]; frozen semen of treated bulls
  cytotoxicity and morphological characteristic of spermatozoid: absence of cytotoxicity and variations in morphological characteristic of spermatozoid
[7]; G-I 0.1% intracisternal daily for three days (57 parts), neomicine mammary infusion (12 parts)
  Recuperated n (affected parts): 56
[7]; G-I 0.1% intracisternal daily for three days, neomicine mammary infusion
  Recuperated % (clinical recuperation of the affected parts): 98.25%
[8]; 27 females, 19 females
  Recuperated n: 20
[8]
  IIA (Artificial insemination index): 1.091±0.30a
  Recuperated %: 74.1%
  T-R (Average of treatment interval of clinical recuperation): 17.7 days
[8]; listed as new formula
  IIA (Artificial insemination index): 1.09 ± 0.30
